Experimental data reported in patent publication US8580496B2, “Method and kit for the detection of genes associated with PIK3CA mutation and involved in PI3K/AKT pathway activation in the ER-postitive and HER2-positive subtypes with clinical implications” (Universite Libre de Bruxelles, priority 2008, dated 2013).

Key:
breast cancer patients = assay: Clinical outcome of breast cancer patients treated with tamoxifen, by PIK3CA mutated signature; assay type: in vivo, human
Excerpt: Primary breast cancer tumour samples from a previously described “tamoxifen-only treated” data set (Loi, 2007; J. Clin Oncol., 25, 1239-46;) were collected for DNA extraction and mutation analysis. The inventors obtained DNA from 173 samples for PIK3CA mutation sequencing and from 131 samples for AKT1 mutation analysis. The median follow-up of these samples was 9.0 yrs (range: 8.2-9.8 yrs), with 45 (28%) distant metastatic events.
Part of the tamoxifen-treated dataset has previously been described (Loi, 2007). Another 77 primary breast cancer samples also treated with tamoxifen monotherapy with corresponding Affymetrix gene expression data was also used for the survival analysis.
The inventors have developed an index called the PIK3CA index that could measure the similarity between the expression profile of any given tumour sample and the PI3K/AKT pathway activation by breast cancers with a PIK3CA mutation.
Statistical analysis was performed using the SPSS statistical software package (SPSS Inc. Chicago, Ill.) version 13.0. […]
Breast cancer molecular subgroups were defined using a previously reported method of WIRAPATI ET AL, 2008, Breast cancer […], 10, R65. The gene expression grade index (GGI) was used as a quantification of the expression of proliferation genes (SOTRIOU ET AL, 2006). […]

[1] = tested on: PIK3CA mutant lines including MCF7 and T47D; assay: Sensitivity of breast cancer cell lines to tamoxifen, PIK3CA mutant vs normal lines; assay type: cell-based

## CC/C(=C(\c1ccccc1)c1ccc(OCCN(C)C)cc1)c1ccccc1 [tamoxifen]
Breast cancer patients; Her2 positive BC patients with the mutated PIK3CA signature vs the other Her2 positive patients
  response to tamoxifen: responded better
Breast cancer patients; luminal B tumours, higher vs lower expression levels of the PIK3CA signature (FIG. 4)
  benefit from tamoxifen (clinical outcome): benefit better
[1]
  sensitivity to tamoxifen: more sensitive
